{"source": "paper PMC8143339", "about": "“PK/PD Modeling of the PDE7 Inhibitor—GRMS-55 in a Mouse Model of Autoimmune Hepatitis” (Pharmaceutics, 2021)", "key": {"PDE7A": {"test_system": "PDE7A", "settings": "in vitro assay; read-out: IC50 PDE7A; cited from earlier work"}, "TNF-α production": {"test_system": "TNF-α production", "set-up": "method as in PMID 31899535", "settings": "rat lipopolysaccharide-induced endotoxemia, PK/PD model; cited from earlier work"}, "[1]": {"test_system": "paw edema in collagen-induced arthritis", "set-up": "method as in PMID 31899535", "settings": "rats with collagen-induced arthritis, PK/PD arthritis progression model; cited from earlier work"}, "ConA-induced hepatitis": {"test_system": "ConA-induced hepatitis", "test": "Preliminary pharmacological evaluation in ConA-induced hepatitis", "format": "in vivo, BALB/c mice", "procedure": "ConA was dissolved in sterile saline (2 mg·mL^−1). The studied compounds (GRMS-55, rolipram, and BRL-50481) were dissolved in a mixture of DMSO, PEG 400, and water for injection at a ratio of 25:25:50 (v/v/v). Mice were given an IP injection of the investigated compounds or the corresponding volume of vehicle alone and, thirty minutes later, intravenously (IV) administered with ConA solution. An additional control group received vehicle alone IP instead of the studied compounds followed by IV injection of sterile saline. ConA was given at a dose of 20 mg·kg^−1. Mice were exsanguinated at several time points post-ConA injection. Blood samples were allowed to clot for 0.5 h at room temperature and then centrifuged at 3000× g for 10 min to obtain the serum, which was stored at −20 °C until further analysis.\nThe influence of PDE inhibitors on the levels of inflammatory mediators and transaminases in ConA-treated mice was investigated in two separate experiments. In the preliminary study, the animals were pretreated IP with GRMS-55 at a dose of 50 mg·kg^−1, the PDE4-selective inhibitor rolipram at a dose of 10 mg·kg^−1, or the PDE7-selective inhibitor BRL-50481 at a dose of 50 mg·kg^−1. Doses of the investigated compounds were chosen based on the results of previous studies. Subsequently, mice were given an IV injection of ConA and sacrificed at 8 h following mitogen dosing. The levels of TNF-α, IL-6, and IFN-γ and the activities of ALT and AST in the mouse serum were measured. This preliminary experiment allowed comparing the activity of the studied PDE inhibitors in this AIH model and helped to select the doses of GRMS-55 for a subsequent pharmacodynamic study. In the final pharmacodynamic experiment, GRMS-55 was administered at two dose levels (50 and 100 mg·kg^−1) followed by ConA administration at a dose of 20 mg·kg^−1. Animals were sacrificed at various time points post-ConA dosing (1, 2, 4, 8 and 24 h). The levels of TNF-α, IL-1β, IL-4, IL-6, IL-10, IL-12, IL-17A, and IFN-γ were measured using a multiplex Luminex assay. In addition, the activities of ALT and AST in the mouse serum were assessed. The concentration–time profiles of the selected biomarkers obtained in this experiment combined with the results of pharmacokinetic analysis allowed the development of a semi-mechanistic PK/PD/disease progression model and the investigation of concentration–effect relationships of GRMS-55.\nThe serum samples from the preliminary pharmacological study were analyzed using ELISA tests according to the protocols provided by the manufacturers. The TNF-α concentrations were measured using the Mouse TNF-α Quantikine ELISA Kit (R&D Systems, Minneapolis, MN, USA), while the concentrations of IL-6 and IFN-gamma were quantified by ELISA kits manufactured by Cloud-Clone Corp. (Houston, TX, USA). The absorbance of samples was measured on a POLARstar Omega multi-mode microplate reader (BMG LABTECH, Ortenberg, Germany) set at 450 nm wavelength. TNF-α, IL-1β, IL-6, IL-4, IL-10, IL-12, IL-17A, and IFN-γ serum levels in samples from pharmacodynamic experiment were determined by a premixed Magnetic Luminex Assay (R&D Systems, Inc., Minneapolis, MN, USA) according to the manufacturer’s protocol. Serum AST and ALT activities were quantified on a chemistry analyzer BS-800 (Shenzhen Mindray Bio-medical Electronics Co., Ltd., Shenzhen, China)."}, "PDE4B": {"test_system": "PDE4B", "settings": "in vitro assay; read-out: IC50 PDE4B; cited from earlier work"}, "[2]": {"settings": "8 h after ConA 20 mg/kg IV, IP pretreatment: rolipram 10, BRL-50481 50, GRMS-55 50 mg/kg, vs vehicle control"}}, "note": "pIC50: −log10 of the molar value.", "data": [{"smiles": "COc1ccc(C2CNC(=O)C2)cc1OC1CCCC1", "note": "(stereo not shown) [Rolipram]", "values": [{"measurement": "pIC50", "setting": "PDE7A", "value": "< 3.70"}, {"measurement": "IC50, suppression of TNF-α production", "setting": "TNF-α production", "value": 0.36, "unit": "µg/mL"}, {"measurement": "IC50, decrease of paw edema", "setting": "[1]", "value": 0.01, "unit": "µg/mL"}, {"measurement": "decrease of IFN-γ level compared to control group", "setting": "ConA-induced hepatitis; 10 mg/kg IP, 8 h after ConA", "value": "approximately 5.0 times"}, {"measurement": "decrease of IL-6 level compared to control group", "setting": "ConA-induced hepatitis; 10 mg/kg IP, 8 h after ConA", "value": "~3.8", "unit": "times"}, {"measurement": "reduction of ALT activity compared to vehicle-treated control group", "setting": "ConA-induced hepatitis; 10 mg/kg IP, 8 h after ConA", "value": "approximately 18.2 times"}, {"measurement": "reduction of AST activity compared to vehicle-treated control group", "setting": "ConA-induced hepatitis; 10 mg/kg IP, 8 h after ConA", "value": "~6.1", "unit": "times"}]}, {"smiles": "Cc1ccc([N+](=O)[O-])cc1S(=O)(=O)N(C)C", "note": "[BRL-50481]", "values": [{"measurement": "pIC50", "setting": "PDE7A", "value": 5.68}, {"measurement": "pIC50", "setting": "PDE4B", "value": "< 3.70"}, {"measurement": "effect on activities of transaminases", "setting": "ConA-induced hepatitis; 50 mg/kg IP, 8 h after ConA", "value": "reduced"}, {"measurement": "effect on serum IFN-γ concentration", "setting": "ConA-induced hepatitis; [2]", "value": "decreased"}, {"measurement": "effect on serum IL-6 concentration", "setting": "ConA-induced hepatitis; [2]", "value": "no effect"}, {"measurement": "effect on serum TNF-α concentration", "setting": "ConA-induced hepatitis; [2]", "value": "decreased"}]}]}
